{"source": "patent US20170066801A1", "about": "“ALPHA3BETA HYDROGEN BOND SURROGATE MACROCYCLES AS MODULATORS OF RAS” (NEW YORK UNIVERSITY, priority 2014, published 2017)", "key": {"wild type HRas": {"molecular_target": "T1, wild type HRas (Homo sapiens, UniProt P01112)", "T1 construct": "levels of GTP-loaded endogenous HRas, KRas, and NRas proteins; endogenous in cells; host or cells: MIA PaCa-2", "assay": "RBD-pulldown of GTP-loaded Ras in MIA PaCa-2 cells", "assay_type": "cell-based", "details": "48 hours", "experimental": "(§1) To determine the effect of α3β-HBSSOS on Sos-mediated Ras activation in cells we treated MIA PaCa-2 cells, which harbor oncogenic KRas, with α3β-HBSSOS, control peptides, or vehicle control for 48 hours. Utilizing the RBD-pulldown assay we determined the levels of GTP-loaded endogenous HRas, KRas, and NRas proteins. As expected, MIA PaCa-2 cells display GTP-loading of all isoforms at steady state when treated with the vehicle control (FIGS. 11A-B)."}, "wild type NRas": {"molecular_target": "T2, wild type NRas (Homo sapiens, UniProt P01111)", "T2 construct": "levels of GTP-loaded endogenous HRas, KRas, and NRas proteins; endogenous in cells; host or cells: MIA PaCa-2", "assay": "RBD-pulldown of GTP-loaded Ras in MIA PaCa-2 cells", "assay_type": "cell-based", "details": "48 hours", "experimental": "as §1"}, "[1]": {"tested_on": "panel of six human cancer cell lines", "assay": "Growth and viability of a panel of six human cancer cell lines", "assay_type": "cell-based", "details": "for effect on cell growth relative to vehicle control: single administration of 5 μM, six days", "experimental": "(§2) Various indicated cell lines were plated at low density (˜500-1000 cells per well) in a 96-well format. 12 hours post-plating, media was supplemented with either PBS vehicle, or indicated dosage, and cells were allowed to grow for ˜5.5 days. Cells were subsequently fixed for 1 hour with a 3.7% formaldehyde solution in PBS, and stained with Syto-60 nucleic acid stain (MANUFACTURER) in solution (1:2000 Syto-60, 0.5% Triton X-100, 100 ug/mL RNAse-A, in PBS). Syto-60 stained cells were subjected to quantitative imaging in 96-well plates (Odyssey® Imager, LI-COR Biosciences; excitation: 652; emission: 678) with a 3.0 mm z-axis offset to the scan-head to get the cellular nuclei in the optimal focal plane for quantification. Absolute fluorescence intensity was normalized to the vehicle control for each respective cell line at each dose. Normalized values were visualized on a semilog plot, and data was subjected to non-linear sigmoidal dose-response to determine half-maximal effective concentration (EC50) using GraphPad Prism version 6.00 for OSX, (GraphPad Software, La Jolla Calif. USA, www.graphpad.com).\n(§3) To investigate the functional consequence of inhibiting Ras activation in the context of oncogenic mutations, we examined the effect of α3β-HBSSOS on the growth and viability of cancer cells of different origins. We selected a panel of six human cancer cell lines derived from the pancreas, colon, and bladder, which harbor a variety of oncogenic proteins including mutant KRas (Table 3).\n(§4) α3β-HBSSOS reduces cell viability in a dose dependent manner, with the effect spanning over four orders of magnitude. We divided the cell lines into two groups with respect to EC50 values (Table 3). […] We hypothesized that differential cellular uptake may account for the different potency of the peptides between the oncogenic and wild type RTK-Ras cell lines."}, "HRas^(1-166)": {"molecular_target": "T3, HRas^(1-166) (Homo sapiens, UniProt P01112)", "T3 construct": "6×His-tagged HRas WT 1-166; made in house", "assay": "In vitro pulldown binding assay with 6×His-tagged HRas 1-166 and fluorescein-tagged SOS peptides", "experimental": "Recombinantly purified 6×His-tagged HRas WT 1-166 was incubated with Ni-NTA sepharose beads, generating recombinant Ras on solid support. FITC labeled HBS peptides were incubated in the presence of recombinant HRas-6×His/Ni-NTA Sepharose complex at 4° C. for 1 hour. Beads complexes were pelleted and washed 5× with protein buffer (20 mM Tris-HCl pH 7.6, 50 mM NaCl, 4 mM EDTA, 10 mM MgCl2), resuspended in reducing buffer (126 mM Tris-HCL pH 6.8, 20% glycerol, 4% SDS, 0.02% bromophenol blue, 2.5% β-mercaptoethanol), boiled for 10 minutes at 95° C., and subjected to SDS-PAGE with an acrylamide percentage of 20% to allow for sufficient resolution of the HBS helices. SDS-PAGE gels were imaged using an ImageQuant™ LAS 4000 biomolecular imager (GE Healthcare, Piscataway, N.J., USA). Quantification of fluorescence by FITC-HBS helices in gel was determined by manufacturer provided ImageQuant™ TL software. Raw values were normalized to total input and plotted on a semilog graph with GraphPad Prism version 6.00 for OSX (GraphPad Software, La Jolla Calif. USA, www.graphpad.com).\nThe binding affinity of the designed compounds for Ras was determined using in vitro pulldown assays with recombinantly purified 6×His-tagged HRas^(1-166) and fluorescein-tagged SOS peptides (FIGS. 8 and 9, and Table 2). […] Although, the exact binding mode of the peptides and the conformational state of Ras is not known, the enhanced affinity of the α3β-HBSSOS compound likely reflects a combination of both the higher conformational stability of the HBS α3β construct and the exact Ras conformation it can access. […] Because, the SOS analogs can bind nucleotide-free and bound Ras, we hypothesize that the compounds are accessing an intermediate switch conformation."}, "[2]": {"molecular_target": "Sos-mediated Ras nucleotide exchange (Homo sapiens, UniProt P01112)", "assay": "In vitro nucleotide exchange (mant-GDP, SOS-Cat)", "assay_type": "biochemical", "experimental": "Exchange assays were performed by incubating 1 μM of recombinant wild type Ras protein with 1 μM mant-GDP in exchange buffer (20 mM Tris-HCl pH 7.6, 50 mM NaCl, 4 mM EDTA) for 5 minutes on ice. The mixture was then supplemented with 10 mM MgCl2 and incubated for an additional 6 hours at 4° C. Exchange reaction was initiated by either the addition of 100 μM-unlabeled GDP, (negative control) or the addition of 100 μM-unlabeled GDP in the presence of 1 μM SOS-Cat. The levels of fluorescence anisotropy were measured on a Perkin Elmer fluorescence spectrometer (model LS50B) with an excitation wavelength of 370 nm and emission detection at 430 nm. To test the inhibitory properties of the HBSSOS helices, indicated peptides were added to the mant-loaded Ras at a concentration of 1 uM and allowed to stand for 10 minutes at 4° C. before the addition of SosCat. Dissociation rates (Koff values) were determined by fitting raw data to a first-order exponential decay function using GraphPad Prism version 6.00 for OSX (GraphPad Software, La Jolla Calif. USA, www.graphpad.com). Data was normalized to t=0, converted to a percentage, and plotted as a curve for ease of visualization.\nWe evaluated inhibition of nucleotide exchange under stringent conditions consisting of 1 μM each of Ras, SOS, and the inhibitor."}, "oncogenic KRas": {"molecular_target": "T4, oncogenic KRas (Homo sapiens, UniProt P01116, G12C)", "T4 construct": "levels of GTP-loaded endogenous HRas, KRas, and NRas proteins; endogenous in cells; host or cells: MIA PaCa-2", "T4 sequence (P01116 whole entry G12C)": "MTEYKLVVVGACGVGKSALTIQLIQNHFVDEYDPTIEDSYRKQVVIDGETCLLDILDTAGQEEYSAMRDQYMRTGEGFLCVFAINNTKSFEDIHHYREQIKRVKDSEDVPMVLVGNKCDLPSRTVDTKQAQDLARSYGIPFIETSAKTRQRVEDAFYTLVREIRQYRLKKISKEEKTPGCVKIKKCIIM", "assay": "RBD-pulldown of GTP-loaded Ras in MIA PaCa-2 cells", "assay_type": "cell-based", "details": "48 hours", "experimental": "as §1"}, "BxPc3": {"tested_on": "BxPc3", "assay_type": "cell-based, human", "details": "BxPc3, Ras WT; read-out: EC50 for cell viability", "experimental": "as §2, §3, §4"}, "CaCo2": {"tested_on": "CaCo2", "assay_type": "cell-based, human", "details": "CaCo2, Ras WT; read-out: EC50 for cell viability", "experimental": "as §2, §3, §4"}, "HCT116": {"tested_on": "HCT116", "assay_type": "cell-based, human", "details": "read-out: EC50 for cell viability", "experimental": "as §2, §3, §4"}, "J82": {"tested_on": "J82", "assay_type": "cell-based, human", "details": "read-out: EC50 for cell viability", "experimental": "as §2, §3, §4"}, "Mia PaCa2": {"tested_on": "Mia PaCa2", "assay_type": "cell-based, human", "details": "read-out: EC50 for cell viability", "experimental": "as §2, §3, §4"}, "SW780": {"tested_on": "SW780", "assay_type": "cell-based, human", "details": "SW780, Ras WT; read-out: EC50 for cell viability", "experimental": "as §2, §3, §4"}, "[3]": {"tested_on": "mutant Ras and wild type Ras cancer cell lines", "assay": "Analysis of DNA content by FACS (cell cycle)", "assay_type": "cell-based", "experimental": "DNA content was determined by flow cytometric analysis using TO-PRO®-3 Iodide (Life Technologies Corp., Grand Island, N.Y.) to stain nucleic acids. Cell lines were plated at ˜40-50% confluency in multi-well format and 12-hours post plating were treated with either HBS helices or vehicle control at the indicated dose. After the indicated incubation period the culture media was collected, and the cells were trypsinized, pooled with the media, pelleted in a clinical centrifuge, resuspended in a small volume of PBS, and added dropwise to 100% ice-cold ethanol while vortexing at low speed, resulting in a final concentration of ˜70% ethanol. Cells were fixed in this solution on ice for 24 hours. Subsequently cells were pelleted at 4° C., washed once with a solution of 1% BSA in PBS, and resuspended in a solution of 1% BSA, 0.5% Triton X-100, 1:5000 TO-PRO®-3 Iodide (Life Technologies Corp., Grand Island, N.Y.). Results and Discussion of Examples 1-9\nWe next sought to gain mechanistic insight into the attenuated growth and viability of cancer cells that is observed upon inhibition of Sos-mediated Ras activation with α3β-HBSSOS. Because of the link between Ras signaling and cell cycle progression, we reasoned that DNA content analysis would elucidate Ras-mediated effects on cell growth. […]"}, "mutant Ras cells": {"tested_on": "mutant Ras cells", "assay": "Phosphorylated H2AX and cleaved caspace-3 immunofluorescence", "assay_type": "cell-based", "details": "only mutant Ras cells", "description": "We next sought to gain mechanistic insight into the attenuated growth and viability of cancer cells that is observed upon inhibition of Sos-mediated Ras activation with α3β-HBSSOS. Because of the link between Ras signaling and cell cycle progression, we reasoned that DNA content analysis would elucidate Ras-mediated effects on cell growth. […] This cellular response to pharmacological inhibition of Ras activation by α3β-HBSSOS phenocopies the effects of the post-transcriptional silencing of wild type Ras and Sos in oncogenic Ras-driven cancer. These corroborant genetic and pharmacological cell viability defects support the therapeutic strategy of targeting wild type Ras activation."}}, "note": "Entries after “also recorded” stand apart in the source; their conditions may differ. Like-named read-outs stand apart in the source and are kept apart here.", "data": [{"compound": "ZAEG*iYRLeLLKaEAAA-NH2 [α3β-HBSMUT]", "values": [{"measurement": "GTP-loading of wild type HRas", "setting": "wild type HRas", "value": "not"}, {"measurement": "GTP-loading of wild type NRas", "setting": "wild type NRas", "value": "not"}, {"measurement": "effect on cell growth relative to vehicle control", "setting": "[1]", "value": "no effect on cell growth"}]}, {"compound": "CC[C@H](C)[C@@H](CC(=O)N[C@@H](Cc1ccc(O)cc1)C(=O)N[C@@H](CCCNC(=N)N)C(=O)N[C@@H](CC(C)C)C(=O)N[C@@H](CCC(=O)O)CC(=O)N[C@@H](CC(C)C)C(=O)N[C@@H](CC(C)C)C(=O)N[C@@H](CCCCN)C(=O)N[C@@H](C)CC(=O)N[C@@H](CCC(=O)O)C(=O)N[C@@H](CCC(=O)O)C(=O)N[C@@H](C)C(=O)N[C@@H](CC(N)=O)C(N)=O)NC(=O)CN1CC=CCCCC(=O)N[C@@H](Cc2ccccc2)C(=O)N[C@@H](CCC(=O)O)C1=O", "note": "[α3β-HBSSOS, ZFEG*iYRLeLLKaEEAN-NH2]", "values": [{"measurement": "fold greater affinity than the all-α analog α-HBSSOS", "setting": "HRas^(1-166)", "value": 50, "unit": "fold"}, {"measurement": "Kd", "setting": "HRas^(1-166); fluorescein-tagged peptides, 4° C., 1 hour", "value": "220 ± 56", "unit": "nM"}, {"measurement": "inhibition of Sos-mediated Ras nucleotide exchange", "setting": "[2]; 1 μM each of Ras, SOS, and the inhibitor", "value": "potent inhibitory effect"}, {"measurement": "concentration giving inhibitory effect comparable to previously reported α-HBSSOS", "setting": "[2]; relative to α-HBSSOS concentration", "value": "one-twentieth"}, {"measurement": "GTP-loading of oncogenic KRas", "setting": "oncogenic KRas", "value": "diminished; also recorded: significantly reduced"}, {"measurement": "GTP-loading of wild type HRas", "setting": "wild type HRas", "value": "completely abrogated"}, {"measurement": "GTP-loading of wild type NRas", "setting": "wild type NRas", "value": "completely abrogated"}, {"measurement": "effect on viability of the wild-type Ras group", "setting": "[1]; CaCo2, SW780, and BxPc3", "value": "limited effects on viability"}, {"measurement": "effect on cell growth relative to vehicle control", "setting": "[1]", "value": "inhibited the growth of all cell lines to varying degrees"}, {"measurement": "EC50", "setting": "BxPc3", "value": 1180, "unit": "nM"}, {"measurement": "EC50", "setting": "CaCo2", "value": 2670, "unit": "nM"}, {"measurement": "EC50", "setting": "HCT116; HCT116, Kras G13C", "value": 243, "unit": "nM"}, {"measurement": "EC50", "setting": "HCT116; HCT-116", "value": "243 ± 44", "unit": "nM"}, {"measurement": "EC50", "setting": "J82; J82, Ras WT, FGFR3 CA", "value": 65.2, "unit": "nM"}, {"measurement": "EC50", "setting": "J82; J82", "value": "65.2 ± 43", "unit": "nM"}, {"measurement": "EC50", "setting": "Mia PaCa2; MIA PaCa-2", "value": "144 ± 57", "unit": "nM"}, {"measurement": "EC50", "setting": "Mia PaCa2; Mia PaCa2, Kras G12D", "value": 144, "unit": "nM"}, {"measurement": "EC50", "setting": "SW780", "value": 1450, "unit": "nM"}, {"measurement": "cells with 4N DNA content", "setting": "[3]; mutant Ras cells (MIA PaCa-2, HCT-116, Umuc3, T24), 48 hours", "value": "accumulation"}, {"measurement": "accumulation in the G2/M phase of the cell cycle", "setting": "[3]; wild type Ras cell lines (SW780, BxPc3, J82)", "value": "do not accumulate"}, {"measurement": "DNA strand breaks and apoptosis", "setting": "mutant Ras cells", "value": "increased levels"}]}]}
